From patent US20020045247A1, “METHODS FOR THE PREPARATION OF RETROVIRAL PARTICLES AND CELL LINES DEFICIENT IN THE ALPHA-GALACTOSYL EPITOPE” (priority 1997, published 2002)

Assays:
Golgi α-mannosidase II = molecular target: T1, Golgi α-mannosidase II (Homo sapiens, UniProt Q16706); settings: addition of inhibitor; cited from earlier work
T1 sequence (Q16706 1-1144): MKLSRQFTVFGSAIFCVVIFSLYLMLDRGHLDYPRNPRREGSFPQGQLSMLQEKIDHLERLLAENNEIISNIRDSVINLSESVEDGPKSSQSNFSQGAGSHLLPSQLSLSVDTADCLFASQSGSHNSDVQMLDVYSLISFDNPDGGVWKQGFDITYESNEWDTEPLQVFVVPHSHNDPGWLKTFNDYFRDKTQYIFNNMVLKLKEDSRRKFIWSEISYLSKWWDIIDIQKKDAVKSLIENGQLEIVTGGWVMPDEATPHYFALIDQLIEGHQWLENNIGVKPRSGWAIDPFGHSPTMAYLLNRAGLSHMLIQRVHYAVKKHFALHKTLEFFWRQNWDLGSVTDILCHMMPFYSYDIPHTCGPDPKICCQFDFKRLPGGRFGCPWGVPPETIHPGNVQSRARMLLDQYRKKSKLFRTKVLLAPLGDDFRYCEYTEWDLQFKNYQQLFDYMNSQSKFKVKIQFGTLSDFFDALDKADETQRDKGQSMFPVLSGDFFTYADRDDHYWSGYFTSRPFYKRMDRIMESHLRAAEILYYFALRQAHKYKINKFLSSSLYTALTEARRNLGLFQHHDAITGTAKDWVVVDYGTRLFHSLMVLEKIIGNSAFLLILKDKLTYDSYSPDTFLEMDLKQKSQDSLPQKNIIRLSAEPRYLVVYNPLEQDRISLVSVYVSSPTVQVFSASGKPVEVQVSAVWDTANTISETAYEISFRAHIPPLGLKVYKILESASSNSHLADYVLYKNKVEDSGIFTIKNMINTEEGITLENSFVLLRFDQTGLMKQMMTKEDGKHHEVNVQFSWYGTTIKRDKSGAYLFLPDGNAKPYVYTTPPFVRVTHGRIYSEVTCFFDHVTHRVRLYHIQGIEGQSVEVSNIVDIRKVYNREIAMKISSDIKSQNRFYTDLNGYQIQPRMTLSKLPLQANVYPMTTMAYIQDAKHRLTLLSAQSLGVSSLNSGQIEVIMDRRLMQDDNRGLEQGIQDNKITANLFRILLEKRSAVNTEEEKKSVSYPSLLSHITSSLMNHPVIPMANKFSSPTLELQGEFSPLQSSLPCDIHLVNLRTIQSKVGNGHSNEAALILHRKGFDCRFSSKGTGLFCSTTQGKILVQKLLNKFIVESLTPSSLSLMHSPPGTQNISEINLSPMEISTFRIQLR

[1] = tested on: complement-mediated inactivation of amphotropic retroviral particles in human serum; assay: Retrovirus killing assay in human serum preincubated with soluble carbohydrates; format: cell-based; settings: for effect on complement-mediated retrovirus inactivation / retrovirus survival: 5 mg/ml carbohydrate preincubated with 40% human serum, titered on NIH/3T3 cells
Procedure: (§1) RVVP samples were assayed for titer of infectious RVVPs on NIH/3T3 cells (ATCC designation CCL 163). 2.5×10^4 cells were plated per well in 6-well plates with 2 ml of DMEM containing 10% fetal bovine serum (D10). The medium in each well was replaced with 2 ml of D10 containing 8 μg/ml of polybrene and retroviral particles were added. Ten-fold dilutions were made from the original well and plates were incubated for 24 h at 37° C. Medium was removed and 2 ml of D10 containing 500 μg/ml of G418 (active weight) was added. The cells were maintained under selection for 7 days with 2 changes of medium during this period. Finally, medium was removed and colonies were stained with methylene blue saturated methanol for 15 min. followed by a brief rinse in water. Wells containing less than 100 colonies were counted to determine titers.
Retroviral vector particles, including those from PA317 or PA317/H-transferase cells, (approximately 500 CFU) were incubated for 30 min. at 37° C. in 100 μl of 40% primate sera diluted in Hank's balanced salt solution (HBSS) and subsequently titered on NIH/3T3 cells to assess retrovirus survival as described above. The different primate sera included human (Diamedix, Cambridge, Mass.), chimpanzee (Southwest Foundation for Research, San Antonio, Tex.), baboon, squirrel monkey, owl monkey and tamarin (all from the New England Regional Primate Research Center, Southborough, Mass.). Data were calculated as percent retrovirus survival in the various sera relative to the number of input CFU (determined by incubation of virus in 40% heat inactivated human serum). […] In the anti-αgalactosyl antibody depletion experiments, retroviral particles were preincubated with either anti-αgalactosyl antibody (90 μg/ml) or buffer alone (PBS; BioWhittaker, Walkersville, Md.) for 30 min. at 37° C. before the addition of either 40% human serum, 40% human serum depleted of anti-αgalactosyl antibodies or 40% squirrel monkey serum for an additional 30 min. incubation. Retrovirus survival was then assessed as described above.

[2] = tested on: inactivation of LXSN retroviral vector particles by human serum; assay: Inactivation of LXSN retroviral vector particles in human serum in the presence of added sugars (Example 2); format: cell-based; settings: 0.3125, 0.625, 1.25, 2.5 and 5 mg/ml; 40% human serum; relative to samples without added sugars
Procedure: as §1
LXSN retroviral vector particles were prepared as described above. Aliquots of a 40% solution of human serum in HBSS were then incubated for 15 minutes at room temperature with added sugars. The sugars added were D-glucose (Mallinckrodt, Paris, Ky.) and galactose alpha-1,3 galactose (Dextra Laboratories, Reading, England), and were added at concentrations of 0.3125, 0.625, 1.25, 2.5, and 5 mg/ml. […] The results of these titrations were calculated as fold increase in retroviral vector particle survival relative to the control samples, and are set forth in FIG. 2.

α-glucosidase I = molecular target: T2, α-glucosidase I (Homo sapiens, UniProt Q13724); settings: addition of inhibitor; cited from earlier work
T2 sequence (Q13724 1-837): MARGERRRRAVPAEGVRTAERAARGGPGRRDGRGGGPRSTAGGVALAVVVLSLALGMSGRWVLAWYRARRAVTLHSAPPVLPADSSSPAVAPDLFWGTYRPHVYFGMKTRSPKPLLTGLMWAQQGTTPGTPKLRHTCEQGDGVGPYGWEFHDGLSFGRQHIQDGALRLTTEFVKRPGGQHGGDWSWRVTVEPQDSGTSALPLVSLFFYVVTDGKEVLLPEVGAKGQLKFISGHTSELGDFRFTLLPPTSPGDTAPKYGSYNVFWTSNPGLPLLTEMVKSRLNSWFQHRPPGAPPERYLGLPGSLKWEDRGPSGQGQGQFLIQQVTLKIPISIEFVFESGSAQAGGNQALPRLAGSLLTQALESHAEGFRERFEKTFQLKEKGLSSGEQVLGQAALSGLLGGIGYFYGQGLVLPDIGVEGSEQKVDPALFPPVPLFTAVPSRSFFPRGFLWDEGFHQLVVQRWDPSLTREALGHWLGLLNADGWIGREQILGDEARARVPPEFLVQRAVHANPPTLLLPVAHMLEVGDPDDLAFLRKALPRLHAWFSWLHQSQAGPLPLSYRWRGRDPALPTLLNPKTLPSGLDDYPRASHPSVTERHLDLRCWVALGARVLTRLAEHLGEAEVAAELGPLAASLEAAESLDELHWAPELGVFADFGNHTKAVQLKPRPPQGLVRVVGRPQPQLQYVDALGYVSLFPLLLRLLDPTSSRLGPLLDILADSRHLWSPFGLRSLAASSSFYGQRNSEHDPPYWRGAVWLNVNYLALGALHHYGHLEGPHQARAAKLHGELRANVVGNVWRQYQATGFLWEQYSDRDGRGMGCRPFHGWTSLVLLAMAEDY

Golgi α-mannosidase I = settings: addition of inhibitor; cited from earlier work

O[C@H]1[C@H]2[C@H](O)CCCN2C[C@H]1O [swainsonine]
activity of Golgi α-mannosidase II (Golgi α-mannosidase II): greatly reduced

O=C[C@H](O)[C@@H](O)[C@H](O)[C@H](O)CO [D(+) glucose]
effect on complement-mediated retrovirus inactivation / retrovirus survival [1]: did not affect retrovirus survival
reduction of inactivation of retroviral vector particles by human serum [2]: not

CN1C[C@H](O)[C@@H](O)[C@H](O)[C@H]1CO [N-methyldeoxynojirimycin]
activity of α-glucosidase I (α-glucosidase I): greatly reduced

C[C@@H]1O[C@@H](O)[C@@H](O)[C@H](O)[C@@H]1O [α-L(−) fucose]
effect on complement-mediated retrovirus inactivation / retrovirus survival [1]: did not affect retrovirus survival

OC[C@H]1O[C@@](CO)(O[C@H]2O[C@H](CO)[C@@H](O)[C@H](O)[C@H]2O)[C@@H](O)[C@@H]1O [sucrose]
effect on complement-mediated retrovirus inactivation / retrovirus survival [1]: did not affect retrovirus survival

OC[C@H]1NC[C@@H](O)[C@@H](O)[C@@H]1O [1-deoxymannojirimycin]
activity of Golgi α-mannosidase I (Golgi α-mannosidase I): greatly reduced

OC[C@H]1O[C@H](O[C@H]2[C@@H](O)[C@@H](CO)OC(O)[C@@H]2O)[C@H](O)[C@@H](O)[C@H]1O (stereo partly drawn) [Galα1-3Gal, galactose α1-3 galactose]
effect on complement-mediated retrovirus inactivation / retrovirus survival [1]: completely blocked complement-mediated virolysis
inhibition of retrovirus inactivation, dose dependence ([1]; various concentrations, 40% human serum): inhibited retrovirus inactivation in a dose-dependent manner
reduction of inactivation of retroviral vector particles by human serum [2]: substantially reduces the inactivation of the retroviral vector particles

O=C[C@H](O)[C@@H](O)[C@@H](O)[C@H](O)CO [D(+) galactose]
inhibition at 5000 µg/mL ([1]; 5 mg/ml, 40% human serum): ~25%

O[C@H]1[C@H](O)[C@@H](O)CN2CC[C@H](O)[C@H]12 [castanospermine]
activity of α-glucosidase I (α-glucosidase I): greatly reduced
